# Data: patent US10208060B2, “Inhibitors of HIF prolyl hydroxylase” (Merck Sharp & Dohme Corp., priority 2014, dated 2019)
# Molecular target: human HIF-PHD2 (Homo sapiens (Human), UniProt Q9GZT9)
# Test: HIF-PHD2 inhibition assay (hydroxylation of HIF-1α peptide, time resolved fluorescence)
# Format: biochemical
# Details: FLAG-tagged full length PHD2; 0.2 μM 2-oxoglutarate, 0.5 μM HIF-1α peptide; 45 minutes at room temperature
# Protocol: To each well of a 384-well plate, 1 μL of test compounds in DMSO (final concentration ranging from 0.3 nM to 10 uM) were added into 20 μl of assay buffer (50 mM Tris pH 7.4/0.01% Tween-20/0.1 mg/ml bovine serum albumin/10 μM ferrous sulfate/1 mM sodium ascorbate/20 μg/ml catalase) containing 0.15 μg/ml FLAG-tagged full length PHD2 expressed in and purified from baculovirus-infected Sf9 cells. […] Purif.
# Sequence of human HIF-PHD2 (Q9GZT9 whole entry): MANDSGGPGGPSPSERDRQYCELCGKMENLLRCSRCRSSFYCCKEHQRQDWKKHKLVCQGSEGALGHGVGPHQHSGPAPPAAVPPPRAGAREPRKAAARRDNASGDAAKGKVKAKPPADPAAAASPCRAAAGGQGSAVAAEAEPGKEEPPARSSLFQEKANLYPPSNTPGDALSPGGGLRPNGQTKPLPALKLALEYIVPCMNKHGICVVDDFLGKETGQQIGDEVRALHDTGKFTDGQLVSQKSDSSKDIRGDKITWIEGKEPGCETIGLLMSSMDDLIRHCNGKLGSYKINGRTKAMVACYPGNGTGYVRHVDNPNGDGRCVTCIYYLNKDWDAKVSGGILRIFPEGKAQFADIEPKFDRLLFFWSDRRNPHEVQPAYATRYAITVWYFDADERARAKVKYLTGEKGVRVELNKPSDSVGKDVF
row,IC50,Compound
1,10 nM,O=C(O)CNC(=O)c1c(O)c2c(n(-c3ccc(-c4ccc(OC(F)(F)F)cc4)cc3)c1=O)CSC2 [Example 12]
2,8.8 nM,"O=C(O)CNC(=O)c1c(O)c2c(n(-c3ccc(Br)cc3)c1=O)CSC2 [Example 11, 2-(1-(4-Bromophenyl)-4-hydroxy-2-oxo-1,2,5,7-tetrahydrothieno[3,4-b]pyridine-3-carboxamido)acetic acid]"
